For one test, the system named is MM.1S. Nature of the test: Tumor cell proliferation inhibition (CellTiter-Meiluncell Luminescent Cell Viability Assay). The test is classed as cell-based. As to conditions: Homo sapiens, MM1.S, MM.1S, 96 hours; for inhibition at 0.01 µM: 10 nM, read-out: Inhibition Rate at 10 nM (%); for inhibition at 0.5 µM: 500 nM, read-out: Inhibition Rate at 500 nM (%). An outline of the steps:
(§1)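 Following overnight seeding, tumor cells received serial compound dilutions to final levels that included 10 nM and 500 nM. Viability was assessed by luminescence at the end of the specified exposure time. Cultures were kept at 37°C with 5% CO2.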

Test [1] deals with T1, human Cereblon WT GST-tagged protein (Homo sapiens, UniProt Q96SW2).
T1 construct: purchased CISBIO 64BDCRBNPEH
T1 sequence (Q96SW2 whole entry): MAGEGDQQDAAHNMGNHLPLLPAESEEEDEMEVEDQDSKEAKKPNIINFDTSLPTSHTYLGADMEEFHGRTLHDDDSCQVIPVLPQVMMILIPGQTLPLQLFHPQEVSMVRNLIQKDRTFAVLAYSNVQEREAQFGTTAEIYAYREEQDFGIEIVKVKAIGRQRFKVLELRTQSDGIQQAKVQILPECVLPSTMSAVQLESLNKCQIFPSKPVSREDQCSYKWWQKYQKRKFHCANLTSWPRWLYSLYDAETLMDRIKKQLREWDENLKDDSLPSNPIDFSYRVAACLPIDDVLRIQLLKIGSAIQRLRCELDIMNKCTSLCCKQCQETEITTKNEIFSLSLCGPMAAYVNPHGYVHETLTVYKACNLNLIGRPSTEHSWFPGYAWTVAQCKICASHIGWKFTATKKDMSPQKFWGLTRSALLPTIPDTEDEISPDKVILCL
Nature of the test: CRBN-binding affinity, HTRF (CEREBLON BINDING kit). The note with it: for inhibition at 0.5 µM: read-out: Inhibition Rate at 0.5 µM (%); for inhibition at 2 µM: read-out: Inhibition Rate at 2 µM (%). In outline:
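GST-tagged human wild-type Cereblon is mixed with test compound (final 2 µM and 0.5 µM) plus an anti-GST europium antibody/thalidomide-Red tracer pair. Binding is read as HTRF displacement, with buffer-only blank wells.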
Background: In TR-FRET formats the signal depends on donor and acceptor labels being close together.

The test system of a further test is Jurkat. Nature of the test: Tumor cell proliferation inhibition (CellTiter-Meiluncell Luminescent Cell Viability Assay). As to conditions: Homo sapiens, 96 hours, Table I-5, designed based on the IRAK4 inhibitors, read-out: Inhibitory activity (IC50, nM) Jurkat. The procedure: The tumor cells used herein were cultured in a cell culture medium listed in table 3 at 37°C in an incubator with 5% CO2. Prior to experimentation, all cell lines used were correctly identified by STR profiling, and tested negative for mycoplasma contamination using a mycoplasma detection kit through routine screenings. Table 3. Tumor cells and cell culture medium used in the present disclosure
The IC50 values of the compounds of the present disclosure (including the compounds in Table 1, Table 2, and Examples) were determined using the CellTiter-Meiluncell Luminescent Cell Viability Assay Kit from Dalian Meilun Biotech Co., Ltd. The detailed procedure is as follows: Tumor cells were seeded in 96-well cell culture plates at the densities specified in Table 4. On the following day, the test compounds of the present disclosure were subjected to serial dilution. […] Subsequently, 0.5 µL of the test compound dilution was transferred into the 96-well plate containing the cells, with each well containing 100 µL of cell culture medium. […] Into the 96-well plate, the diluted test compounds and corresponding detection reagents were added, resulting in final test compound concentrations of 500 nM and 10 nM, respectively. The experimental procedure is described below using the diluted 2 µM test compound as an example.
0.5 µL of the aforementioned diluted compound of the present disclosure (including the compounds in Table 1, Table 2, and Examples) was added to the seeded cells in 100 µL of medium, yielding a final test compound concentration of 10 nM. After the cells were treated with the compounds of the present disclosure for a specified period, the cell viability assay reagent was added to the culture medium according to the kit's instructions to determine cell viability. […] All controls were treated using the same procedure as the compounds of the present disclosure. […] Seeding protocol and treatment time for tumor cells

The next test has as its target T2, BRM (Homo sapiens, UniProt P51531).
T2 construct: endogenous in cells; host or cells: Molt-4
Put plainly: Western blot, target protein degradation in Molt-4 Cell. It is filed as cell-based. The note with it: substrate protein remaining %, treated at 500 nM and 50 nM, 24 hours. The procedure:
(§2) Conventional Western blot assay was performed to evaluate the effects of the compounds of the present disclosure on the expression of target proteins in cells.
(§3) (1) Cell Seeding and Protein Harvesting: The selected cells were processed according to the cell seeding procedure and protein harvesting procedure in Table II-2. Table II-2 Cell Seeding and Protein Harvesting Procedures
(§4) (2) To the collected supernatant, 5X SDS sample loading buffer was added, followed by denaturation at 95°C for 5 minutes. The denatured samples were then separated by SDS-PAGE electrophoresis on a polyacrylamide gel. Proteins were transferred to a nitrocellulose membrane (0.45 µm NC membrane), blocked with blocking buffer at room temperature for 1 hour, and subjected to antibody incubation and development procedures according to the antibody manufacturer's instructions (Cell Signaling Technology).
(§5) Half-Maximal Degradation Concentration value (the drug concentration required for degrading proteins by 50%, abbreviated as DC50) reads method: comparing the grayscale values of Western blot bands from drug-treated samples with those from blank DMSO-treated controls, and identifying the drug concentration range at which the grayscale value is half that of the DMSO-treated control bands.
(§6) DC50 values can be calculated using ImageJ software to measure grayscale values of Western blot bands from drug-treated samples. […]
Background: Immunoblotting shows a protein as a band on a membrane.

For a further test, the target named is T3, BRG1 (Homo sapiens, UniProt P51532).
T3 construct: endogenous in cells; host or cells: Molt-4
T3 sequence (P51532 whole entry): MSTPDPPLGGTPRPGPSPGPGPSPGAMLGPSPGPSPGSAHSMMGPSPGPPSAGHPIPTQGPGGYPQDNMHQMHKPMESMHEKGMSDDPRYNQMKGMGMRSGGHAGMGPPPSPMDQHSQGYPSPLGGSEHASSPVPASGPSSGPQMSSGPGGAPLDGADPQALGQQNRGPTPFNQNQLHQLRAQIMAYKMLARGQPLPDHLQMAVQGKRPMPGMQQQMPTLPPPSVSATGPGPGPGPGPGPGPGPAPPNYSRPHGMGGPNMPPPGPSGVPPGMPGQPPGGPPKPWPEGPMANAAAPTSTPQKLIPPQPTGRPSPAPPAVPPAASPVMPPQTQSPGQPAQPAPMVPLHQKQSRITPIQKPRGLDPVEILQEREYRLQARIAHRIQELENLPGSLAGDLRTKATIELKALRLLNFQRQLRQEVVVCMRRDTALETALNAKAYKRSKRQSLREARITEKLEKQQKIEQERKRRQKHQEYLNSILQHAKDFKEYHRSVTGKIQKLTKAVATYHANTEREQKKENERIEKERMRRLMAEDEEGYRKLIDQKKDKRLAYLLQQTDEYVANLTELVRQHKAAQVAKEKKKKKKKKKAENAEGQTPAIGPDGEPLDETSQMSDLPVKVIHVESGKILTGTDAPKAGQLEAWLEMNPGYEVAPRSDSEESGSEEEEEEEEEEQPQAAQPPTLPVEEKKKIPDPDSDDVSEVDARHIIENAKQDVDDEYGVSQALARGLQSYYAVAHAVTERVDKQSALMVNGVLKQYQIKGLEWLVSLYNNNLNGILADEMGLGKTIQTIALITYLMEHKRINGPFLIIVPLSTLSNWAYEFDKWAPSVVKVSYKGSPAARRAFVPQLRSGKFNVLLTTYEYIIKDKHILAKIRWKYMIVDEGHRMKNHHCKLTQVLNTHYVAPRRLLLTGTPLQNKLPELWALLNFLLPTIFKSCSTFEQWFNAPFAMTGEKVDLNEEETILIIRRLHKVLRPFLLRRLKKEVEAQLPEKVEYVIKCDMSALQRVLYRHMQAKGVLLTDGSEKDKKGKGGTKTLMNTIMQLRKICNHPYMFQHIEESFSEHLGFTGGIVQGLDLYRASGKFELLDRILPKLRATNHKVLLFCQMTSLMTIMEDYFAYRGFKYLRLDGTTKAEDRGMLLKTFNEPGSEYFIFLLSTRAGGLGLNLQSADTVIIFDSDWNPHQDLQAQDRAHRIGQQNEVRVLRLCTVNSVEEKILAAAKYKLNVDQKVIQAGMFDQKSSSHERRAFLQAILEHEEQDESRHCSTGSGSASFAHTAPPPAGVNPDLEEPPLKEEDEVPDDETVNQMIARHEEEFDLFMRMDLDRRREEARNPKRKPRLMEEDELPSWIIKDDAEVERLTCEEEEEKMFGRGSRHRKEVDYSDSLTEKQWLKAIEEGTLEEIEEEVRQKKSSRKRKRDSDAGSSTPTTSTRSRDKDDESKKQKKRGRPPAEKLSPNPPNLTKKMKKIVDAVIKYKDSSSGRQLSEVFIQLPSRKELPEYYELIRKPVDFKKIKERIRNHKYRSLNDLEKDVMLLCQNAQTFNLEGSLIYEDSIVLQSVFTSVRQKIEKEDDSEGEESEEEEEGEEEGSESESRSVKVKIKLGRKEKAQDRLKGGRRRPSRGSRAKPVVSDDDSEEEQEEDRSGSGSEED
The test is described as above. It is filed as cell-based. As to conditions: substrate protein remaining %, treated at 500 nM and 50 nM, 24 hours. The procedure: as §2, §3, §4, §5, §6

The test system of a further test is JEKO-1. Nature of the test: Tumor cell proliferation inhibition (CellTiter-Meiluncell Luminescent Cell Viability Assay). It is filed as cell-based. As to conditions: Homo sapiens, 96 hours, Table I-13, CDK2 inhibitors. In outline:
as §1

Another test deals with MV-4-11. The test is described as above. It is filed as cell-based. As to conditions: Homo sapiens, 96 hours, Table I-13, CDK2 inhibitors. In outline:
as §1

The target in the next test is T4, CDK2 (Homo sapiens, UniProt P24941).
T4 construct: the expression of target proteins in cells; endogenous in cells; host or cells: hPBMC
Nature of the test: Western blot, target protein degradation in hPBMC Cell. It is filed as cell-based. As to conditions: treated at 50 nM and 500 nM, 24 hours. The procedure: as §2, §3, §4, §5
DC50 values can be calculated using ImageJ software to measure grayscale values of Western blot bands from drug-treated samples. The concentration-response curve is fitted to estimate the drug concentration corresponding to half the grayscale value.
Target protein remaining (%) refers to the percentage of target protein remaining in cells after treatment with protein degrader compounds.
Calculation method for target protein remaining (%): Use ImageJ software to measure grayscale values of Western blot bands from drug (protein degrader)-treated samples. The grayscale value of drug-treated bands is divided by that of internal control protein bands, and the resulting quotient is normalized to obtain the relative percentage of remaining target protein after protein degrader treatment. Target protein degradation rate(%) = 1−target protein remaining(%). [formula]

The mark [2] stands for this setting: Table I-8, SMARCA2/4 inhibitors.

This is an account of results in patent publication EP4745138A1, “THIO-GLUTARIMIDO ISOINDOLINONE DERIVATIVE, BIFUNCTIONAL PROTEIN DEGRADER CONTAINING SAME, AND USES THEREOF” (Gluetacs Therapeutics (Shanghai) Co., Ltd., priority 2023, dated 2025).

Where two headings read alike, the source gives them in different places.

In general, IC50 refers to the concentration that inhibits the measured activity by half. The term inhibition denotes how much of the control response was suppressed.

T2 sequence (P51531 whole entry): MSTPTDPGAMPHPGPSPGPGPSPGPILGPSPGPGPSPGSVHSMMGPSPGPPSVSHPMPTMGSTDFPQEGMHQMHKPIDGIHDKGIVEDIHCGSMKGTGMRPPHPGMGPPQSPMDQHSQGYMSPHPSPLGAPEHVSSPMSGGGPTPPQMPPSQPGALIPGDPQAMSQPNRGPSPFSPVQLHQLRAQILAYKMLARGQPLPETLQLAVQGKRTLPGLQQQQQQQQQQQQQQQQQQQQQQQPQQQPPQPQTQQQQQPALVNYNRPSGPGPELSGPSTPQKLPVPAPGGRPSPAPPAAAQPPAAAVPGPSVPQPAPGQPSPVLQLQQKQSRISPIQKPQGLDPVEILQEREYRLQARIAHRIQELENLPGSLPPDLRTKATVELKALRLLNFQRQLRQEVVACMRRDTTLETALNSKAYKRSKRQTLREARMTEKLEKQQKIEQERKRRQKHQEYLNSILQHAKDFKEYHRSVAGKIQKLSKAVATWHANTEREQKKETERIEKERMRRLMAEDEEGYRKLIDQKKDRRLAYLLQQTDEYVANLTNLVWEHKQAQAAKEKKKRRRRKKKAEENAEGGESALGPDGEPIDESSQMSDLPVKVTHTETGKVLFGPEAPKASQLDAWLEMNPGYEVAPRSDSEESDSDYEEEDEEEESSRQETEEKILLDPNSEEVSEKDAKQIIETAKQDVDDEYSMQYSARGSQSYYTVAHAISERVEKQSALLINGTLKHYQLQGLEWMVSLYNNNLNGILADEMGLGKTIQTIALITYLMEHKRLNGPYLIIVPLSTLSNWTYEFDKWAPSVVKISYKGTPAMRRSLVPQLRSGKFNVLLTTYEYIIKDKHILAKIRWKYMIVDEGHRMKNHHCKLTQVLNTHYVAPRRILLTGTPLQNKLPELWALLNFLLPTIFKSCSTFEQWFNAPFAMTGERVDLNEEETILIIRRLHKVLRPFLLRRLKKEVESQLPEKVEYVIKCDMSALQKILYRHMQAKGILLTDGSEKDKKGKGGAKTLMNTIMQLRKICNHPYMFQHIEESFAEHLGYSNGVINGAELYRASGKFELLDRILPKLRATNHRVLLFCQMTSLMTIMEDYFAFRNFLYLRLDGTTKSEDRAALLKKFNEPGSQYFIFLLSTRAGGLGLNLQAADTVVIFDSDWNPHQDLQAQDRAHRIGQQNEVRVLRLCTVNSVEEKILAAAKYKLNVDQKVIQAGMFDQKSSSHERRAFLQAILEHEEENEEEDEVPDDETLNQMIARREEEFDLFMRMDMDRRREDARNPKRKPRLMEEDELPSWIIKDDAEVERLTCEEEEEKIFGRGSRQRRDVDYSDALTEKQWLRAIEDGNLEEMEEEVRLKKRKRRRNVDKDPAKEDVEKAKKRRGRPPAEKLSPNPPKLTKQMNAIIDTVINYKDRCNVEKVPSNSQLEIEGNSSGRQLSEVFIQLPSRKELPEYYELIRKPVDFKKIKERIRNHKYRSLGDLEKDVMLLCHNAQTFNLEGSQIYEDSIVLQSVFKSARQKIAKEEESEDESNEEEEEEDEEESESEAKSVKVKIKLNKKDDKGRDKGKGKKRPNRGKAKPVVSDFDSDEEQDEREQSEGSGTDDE

As to `COc1cc2nn(C3CCN(Cc4cccc5c4CN(C4CCC(=O)NC4=O)C5=S)CC3)cc2cc1NC(=O)c1cccc(C(F)(F)F)n1` (stereo not shown) [GT-04950, N-(2-(1-((2-(2,6-dioxopiperidin-3-yl)-1-thioxoisoindolin-4-yl)methyl)piperidin-4-yl)-6-methoxy-2H-indazol-5-yl)-6-(trifluoromethyl)picolinamide], the IC50 in the test with MM.1S (Table I-5, designed based on the IRAK4 inhibitors, read-out: Inhibitory activity (IC50, nM) MM.1S) fell in the range of 100 to 500 nM. In test [1], the inhibition at 0.5 µM fell in the range of 40 to 53% and the inhibition at 2 µM lay in the range of 60 to 80%. In addition, in the test with Jurkat, the IC50 lay within 500 to 1000 nM.

For the molecule `Nc1nnc(-c2ccccc2O)cc1N1CCN(Cc2ccc3c(c2)C(=S)N(C2CCC(=O)NC2=O)C3)CC1` (stereo not shown) [GT-08787, 3-(6-((4-(3-amino-6-(2-hydroxyphenyl)pyridazin-4-yl)piperazin-1-yl)methyl)-1-thioxoisoindolin-2-yl)piperidine-2,6-dione], in the test on MM.1S (setting [2]), the inhibition at 0.01 µM lay in the range of 30 to 40% and the inhibition at 0.5 µM is 40 to 50%. Further, in test [1], the inhibition at 0.5 µM is 60 to 80% and the inhibition at 2 µM was 80 to 100%. Moreover, the “Degradation of substrate protein BRM” value at BRM is “A (0% ≤ substrate protein remaining % ≤ 80%)”. In addition, the “Degradation of substrate protein BRG1” value on BRG1 is given as “A (0% ≤ substrate protein remaining % ≤ 80%)”.

For the molecule `Cc1ccsc1C(=O)n1nc(Nc2ccc(S(=O)(=O)N3CCN(Cc4ccc5c(c4)C(=S)N(C4CCC(=O)NC4=O)C5)CC3)cc2)nc1N` (stereo not shown) [GT-08798, 3-(6-((4-((4-((5-amino-1-(3-methylthiophene-2-carbonyl)-1H-1,2,4-triazol-3-yl)amino)phenyl)sulfony 1)piperazin-1-yl)methyl)-1-thioxoisoindolin-2-yl)piperidine-2,6-dione], the inhibition at 0.01 µM is 10 to 20% in the test with JEKO-1 (10 nM, read-out: Inhibition Rate at 10 nM (%)); 20 to 30% in the test on MV-4-11 (MV4-11, 10 nM, read-out: Inhibition Rate at 10 nM (%)); 10 to 20% with MM.1S (Table I-13, CDK2 inhibitors). Moreover, the inhibition at 0.5 µM in the test on JEKO-1 (500 nM, read-out: Inhibition Rate at 500 nM (%)) was in the range of 60 to 70%; in the test with MV-4-11 (MV4-11, 500 nM, read-out: Inhibition Rate at 500 nM (%)) it was 60 to 70%; in the test on MM.1S (Table I-13, CDK2 inhibitors), 50 to 60%; in test [1] it was 53 to 60%. Also, the inhibition at 2 µM in test [1] fell in the range of 60 to 80%. For the same molecule, at CDK2, the “Degradation of substrate protein CDK2” value is reported as “Yes”.
